Some test systems named below: A498 renal; BT-549 breast; RPMI-8226 leukemia; SK-MEL-2 melanoma; SK-OV-3 ovarian; SNB-75 CNS; SW-620 colon; T-47D breast.
Holding throughout (assay): NCI-60 cell line screen, 48 h

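Protocol summary: plate cells (96-well), add compound at 5 concentrations, incubate 48 h, interpolate endpoints linearly. GI50: concentration for 50% inhibition of growth. TGI: total growth inhibition.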

Turning to `OCCCCC#Cc1ccccc1C#Cc1cccc(O)c1`, the GI50 was 18.5 µM in the experiment with A498 renal; 16 µM in the experiment with BT-549 breast; 20.7 µM with RPMI-8226 leukemia; 18.6 µM in the experiment on SK-MEL-2 melanoma; 19.1 µM in the experiment with SK-OV-3 ovarian; 16.1 µM with SNB-75 CNS. Besides, the GI50 in the experiment with SW-620 colon is 17.5 µM; in the experiment on T-47D breast, 14.4 µM. Moreover, the TGI in the experiment on A498 renal worked out at 39.4 µM; in the experiment with BT-549 breast, 42.1 µM; in the experiment with RPMI-8226 leukemia, 53.7 µM; with SK-MEL-2 melanoma it was 38.8 µM; in the experiment on SK-OV-3 ovarian it was 43.3 µM; with SNB-75 CNS, 38.1 µM. Moreover, the values for the TGI in the experiment on SW-620 colon and with T-47D breast were 33.3 µM and 34.7 µM, respectively.
As for `Cc1c[n+](Cc2ccc3ccccc3c2)cn1Cc1ccc2ccccc2c1`, the GI50 with A498 renal was 0.954 µM; in the experiment on BT-549 breast, 1.56 µM; in the experiment on RPMI-8226 leukemia it was 0.595 µM; in the experiment with SK-MEL-2 melanoma it was 1.85 µM; with SK-OV-3 ovarian it was 2.16 µM; in the experiment with SNB-75 CNS, 1.09 µM. In addition, the GI50 with SW-620 colon was 1.64 µM; in the experiment with T-47D breast, 0.371 µM. Further, the TGI with A498 renal worked out at 4.29 µM; in the experiment on BT-549 breast, 3.12 µM; in the experiment on RPMI-8226 leukemia it was 2.49 µM; in the experiment with SK-MEL-2 melanoma, 3.68 µM; in the experiment with SK-OV-3 ovarian it was 6.12 µM; with SNB-75 CNS it was 2.51 µM. Besides, the TGI is 3.74 µM in the experiment on SW-620 colon and 2.75 µM with T-47D breast.
On to `O=C(O)c1ccccc1-c1ccccc1C(=O)Nc1ccc2c(c1)Cc1cc(F)ccc1-2`, for which the TGI with A498 renal was 46 µM; with BT-549 breast it was 40.2 µM; in the experiment with RPMI-8226 leukemia, 82.8 µM; in the experiment with SK-MEL-2 melanoma it was 37.9 µM; in the experiment on SK-OV-3 ovarian, above 100 µM; in the experiment on SNB-75 CNS, above 100 µM. Moreover, the TGI with SW-620 colon and with T-47D breast was above 100 µM each time.
As for `Fc1ccc(Nc2cc(-n3nnc4ccccc43)nc3ccccc23)cc1`, the GI50 in the experiment on A498 renal is 56.4 µM; in the experiment with BT-549 breast, above 47.9 µM; with RPMI-8226 leukemia, 19.3 µM; in the experiment with SK-MEL-2 melanoma, 98.8 µM; with SK-OV-3 ovarian it was 8.41 µM; in the experiment with SNB-75 CNS, 14.1 µM. The GI50 with SW-620 colon was above 100 µM. The TGI with A498 renal is above 100 µM; with BT-549 breast it was above 89 µM; with RPMI-8226 leukemia, above 100 µM; in the experiment with SK-MEL-2 melanoma it was above 100 µM; with SK-OV-3 ovarian, above 100 µM; with SNB-75 CNS it was 45.8 µM. The TGI with SW-620 colon and in the experiment with T-47D breast was above 100 µM in each case.
On to `O=C1/C(=C\c2cccn2Cc2ccccc2)c2ccccc2N1c1c(Cl)cccc1Cl`, for which the GI50 in the experiment with A498 renal was above 100 µM; in the experiment with BT-549 breast, above 100 µM; in the experiment on RPMI-8226 leukemia, 1.3 µM; in the experiment on SK-MEL-2 melanoma, 2.4 µM; with SK-OV-3 ovarian, above 100 µM; in the experiment with SNB-75 CNS it was above 22.9 µM. Also, the GI50 was above 100 µM with SW-620 colon and 0.266 µM in the experiment with T-47D breast. Also, the TGI with A498 renal was above 100 µM; with BT-549 breast, above 100 µM; in the experiment on RPMI-8226 leukemia, above 100 µM; in the experiment with SK-MEL-2 melanoma it was above 30.1 µM; in the experiment with SK-OV-3 ovarian, above 100 µM; in the experiment on SNB-75 CNS it was above 100 µM. In addition, the TGI in the experiment on SW-620 colon was above 100 µM; in the experiment with T-47D breast, 1.93 µM.
Take `Cc1[nH]n(-c2cccc(Cl)c2)c(=O)c1/C=C1\C=Nc2ccc(Br)cc21`: the GI50 with A498 renal is 2.08 µM; in the experiment with BT-549 breast, 7.89 µM; with RPMI-8226 leukemia, 3.08 µM; in the experiment on SK-MEL-2 melanoma it was 10.5 µM; with SK-OV-3 ovarian, 2.22 µM; in the experiment on SNB-75 CNS, 1.25 µM. For the same molecule, the values for the GI50 with SW-620 colon and in the experiment on T-47D breast were 3.58 µM and 2.06 µM, respectively. Further, the TGI in the experiment on A498 renal was determined as 5.18 µM; in the experiment with BT-549 breast, 30 µM; with RPMI-8226 leukemia, 22.6 µM; in the experiment with SK-MEL-2 melanoma, 24.6 µM; in the experiment with SK-OV-3 ovarian it was 4.53 µM; with SNB-75 CNS it was 3.37 µM. The TGI in the experiment with SW-620 colon is above 100 µM; with T-47D breast it was 6.26 µM.
For `O=C(CN(C1CCCCC1)C1CCCCC1)Nc1ccc(S(=O)(=O)c2ccc(NC(=O)CN(C3CCCCC3)C3CCCCC3)cc2)cc1`, the GI50 was 11.4 µM with A498 renal; 0.506 µM with BT-549 breast; 1.35 µM in the experiment on SK-MEL-2 melanoma; 8.64 µM in the experiment with SK-OV-3 ovarian; 2.27 µM in the experiment with SNB-75 CNS; 0.228 µM in the experiment with SW-620 colon. The GI50 in the experiment with T-47D breast was 1.15 µM. The TGI was found to be 27.9 µM in the experiment with A498 renal; 1.91 µM in the experiment on BT-549 breast; 3.5 µM with SK-MEL-2 melanoma; 21.6 µM in the experiment on SK-OV-3 ovarian; 9.32 µM with SNB-75 CNS; 0.65 µM in the experiment on SW-620 colon. In the experiment on T-47D breast, the TGI was 3.74 µM.
For the molecule `CN(C)Cc1c[nH]c2c1C(=O)c1c(c(O)c3ccccc3c1O)C2=O`, the GI50 is 12.1 µM in the experiment with A498 renal; 13.7 µM with BT-549 breast; 4.16 µM in the experiment with RPMI-8226 leukemia; 52 µM in the experiment on SK-OV-3 ovarian; 20 µM with SNB-75 CNS; 3.37 µM in the experiment with SW-620 colon. Further, in the experiment with T-47D breast, the GI50 was 11.4 µM. Moreover, the TGI in the experiment with A498 renal is 25.3 µM; in the experiment on BT-549 breast it was 26.5 µM; with RPMI-8226 leukemia, 22.2 µM; in the experiment on SK-OV-3 ovarian, above 100 µM; in the experiment on SNB-75 CNS, 53.5 µM; in the experiment with SW-620 colon, 14.6 µM. For the same molecule, the TGI in the experiment with T-47D breast was above 100 µM.
Consider `CCN(CC)CC(C)(C)C(=O)/C=C/c1ccc(Cl)c(Cl)c1`, for which the GI50 in the experiment on A498 renal is 1.63 µM; in the experiment with BT-549 breast, 1.72 µM; with RPMI-8226 leukemia it was 1.96 µM; in the experiment on SK-MEL-2 melanoma, 2.5 µM; in the experiment on SNB-75 CNS, 1.3 µM; in the experiment on SW-620 colon, 1.76 µM. In addition, the GI50 in the experiment on T-47D breast is 1.52 µM. In addition, the TGI with A498 renal came out at 3.55 µM; in the experiment with BT-549 breast, 3.12 µM; in the experiment on RPMI-8226 leukemia, 5.47 µM; with SK-MEL-2 melanoma it was 4.63 µM; in the experiment with SNB-75 CNS, 2.93 µM; in the experiment with SW-620 colon it was 4.21 µM. This molecule also yielded a TGI with T-47D breast of 4.03 µM.
In the case of `Cc1n(Cc2ccc3ccccc3c2)cc[n+]1Cc1ccc2ccccc2c1`, the GI50 is 0.47 µM in the experiment with A498 renal; 0.929 µM in the experiment on BT-549 breast; 0.405 µM in the experiment on RPMI-8226 leukemia; 1.81 µM in the experiment on SK-OV-3 ovarian; 0.626 µM in the experiment on SNB-75 CNS; 1.77 µM with SW-620 colon. Also, the GI50 in the experiment on T-47D breast was 0.438 µM. Further, the TGI is 4.61 µM with A498 renal; 3.01 µM in the experiment with BT-549 breast; 1.89 µM with RPMI-8226 leukemia; 7.38 µM in the experiment with SK-OV-3 ovarian; 6.14 µM in the experiment with SNB-75 CNS; 11.7 µM in the experiment with SW-620 colon. In addition, in the experiment on T-47D breast, the TGI worked out at 5.12 µM.

Source of the values: PubChem BioAssay (NCI).
